In series [1] the test system is 8077S calli. The series is classed as cell-based, rice. From the text:
FIG. 6. Bensulfuron-methyl selection results of Cyp81A6-transformed 8077S calli. Left: transgenic; right: non-transgenic control.
(§1) The full length sequence of candidate gene Cyp81A6 was obtained through lump-sum amplification using LA TaqTM polymerase reagent kit purchased from Takara Company. The long fragment PCR specific primer pairs (forward primer: 5′-[…]-3′ (SEQ ID NO: 40); reverse primer: 5″-[…]-3′ (SEQ ID NO: 41), synthesized by Shanghai Sangon) used in this experiment were designated at a start from 124 bp before and end with 4145 bp after BamHI enzyme digestion site located at 5′-end of Cyp81A6 gene, respectively, according to the DNA sequence publicized by indica rice genome database. According to the designing, these primers have a BstEII enzyme cutting site attached to the 3′-end of the primers, which is convenient for production of cohesive end and ligation during cloning. The amplified fragment with the total size of […] by this pair of primers is consisted of those parts: 124 bp upstream sequence of the BamHI digestion site, 1321 bp promoter sequence, 2321 bp sequence of leader region plus exon plus intron , 272 bp 3′-UTR sequence, followed by 288 bp genome sequence (including the 7 bp BstEII recognition site and 5 bp protection base). […]

Series [2] deals with Cyp81A6 transgenic 8077S plants. Description: Bentazon test of Cyp81A6 transgenic 8077S seedlings (complementation). The series is classed as in vivo, rice.
Source text: FIG. 7. […] Left: negative control of 8077S; middle: transgenic seedling; right: positive control of W6154S.
as §1

The subject of series [3] is Cyp81A6 antisense RNA transformed Minghui 63 plants. Briefly: Bentazon leaf smear test of Cyp81A6 antisense RNA transformed Minghui 63 plants. Conditions: 1250 mg/L smeared on leaves, 3 leaves/plant; antisense transgenic Minghui 63; 36 hours later. The series is classed as in vivo, rice. From the text:
Design anti-sense RNA (RNAi) sequences (see the 1939th to 2439th nucleotide sequence of SEQ ID NO.1) in according with the coding sequence of the cloned rice Cyp81A6 gene. Fuse these antisense RNA (RNAi) sequence to the rice constitutive expression promoter such as Actin1 and then insert them into the binary vectors of pAANT11 (see FIG. 16). Use this vector to transform wild-type rice such as Minghui 63 using the modified procedures of Agrobacterium-mediated transformation method. After that, use the specific primers to carry on the PCR amplification analysis of transgenic TO generation plants for molecular confirmation.

Structures are written as SMILES.

Take `COC(=O)c1ccccc1CS(=O)(=O)NC(=O)Nc1nc(OC)cc(OC)n1` [BSM, bensulfuron-methyl]: the “growth of non-transgenic calli on herbicide medium” value in series [1] is on record as “stop to grow”.
As to `CC(C)N1C(=O)c2ccccc2NS1(=O)=O` [bentazon], the “response of PCR-positive Cyp81A6 transformants to bentazon” value in series [2] (1250 mg/l, regenerated transgenic 8077S plantlets) is listed as “recovered the resistance”. For the same molecule, in series [2] (8077S mutant genome transformed with entire CYP81A6 gene), the “resistance of transgenic line carrying the entire CYP81A6 sequence” value is “highly resistant”. For the same molecule, the “outcome of treated leaves and plants” value in series [3] was “faded and died”.
